What was measured:
human CCR5 = target: T1, human CCR5 (Homo sapiens, UniProt P51681); experiment: CCR5 receptor membrane binding assay (CHO (Gα16) human CCR5 membranes, [125I]RANTES, SPA beads); details: 6 h, read-out: hKi [nM] (CCR5)
T1 construct: expressed in transfected cells; host or cells: CHO cells co-expressing Gα16, grown under puromycin and zeocin selection; membrane preparation
Description: The above exemplary substances have been tested for binding to CCR5 using a binding assay as outlined herein below:
CHO, (Gα16) human CCR5 cells were cultured under standardized conditions at 37° C. and 5% CO2 in a humidified incubator. CHO (Gα16) human CCR5 cells were cultivated in Ham's F12 (Invitrogen; #31765068) supplemented with 10 µg/ml Puromycin (Invitrogen; #A11139-03), 200 µg/ml Zeocin (Invitrogen; #45-0003) and 10% FCS (Gibco; #10500-064).
Membranes were prepared from CHO (Gα16) human CCR5 cells. Cells were cultured on […] plates (Nunc; #166508) 2-3 days before membrane preparation (usually 80-100 plates to obtain 80 mg protein).
Cells were scraped off the plates with a big scraper and washed with 2×5 ml ice cold Phosphate Buffer Saline (PBS; Invitrogen; #14040-174). Cell suspension was collected in a glass bottle (on ice). Cell suspension was harvested at 1400 rpm and 4° C. for 10 min and washed in PBS. Cell pellet was resuspended in 40 ml PBS with protease inhibitor mix ‘complete’ (Roche; #11873580001; 1 tablet/50 ml).
For gentle cell disruption the membrane preparation was performed by using a homogenizer (potter). Cells were homogenized for 5-10 min.
Membranes were centrifuged at 1000 rpm and 4° C. for 5 min. Supernatant (=membrane) was harvested in a new falcon tube and remaining cell pellet homogenized again for 5-10 min with PBS with protease inhibitor mix and centrifuged. Collected supernatant was centrifuged at 40000 rpm and 4° C. for 30 min to sediment the cell membranes.
The membranes were resuspended in 25 mM HEPES, 25 mM MgCl2, 1 mM CaCl2, 10% Glycerine for storage in aliquots at −80° C. Membranes were diluted to a concentration of 5 mg/ml (Bradford Assay).
[^125I]RANTES, Stock: 1825 Ci/mmol, 25 μCi (Bio Trend #A3-AI-676) was solved in 1000 μl assay buffer (100 mM NaCl; 10 mM MgCl2; 50 mM Tris-HCl; 1 mM EDTA; 0.1% BSA, pH 7.6), stored at −20° C.
CHO (Gα16) human CCR5 membrane were solved on ice and adjusted with assay buffer to a concentration of 2.5 μg/15 μl.
Amersham Biosciences PVT-WGA Beads (GE Healthcare; #RPNQ0001) were adjusted with assay buffer to a concentration of 8 mg/ml. For preparation of the membrane-bead-suspension, membranes and beads were incubated for 30 min at RT under rotation with a ratio of 1:2.
Test compounds dissolved in 100% DMSO to a concentration of 10 mM and are further diluted with 100% DMSO to 1 mM. All additional compound dilutions were obtained with assay buffer, final 1% DMSO. 7 μl compound dilution, 45 μl membrane-bead-suspension and 10 μl [^125I]RANTES (ca. 20000 cpm/10 μl) were incubated at RT. Bound radioactivity was determined by scintillation counter after 6 h. Determination of affinity of test compounds (dissociation constant Ki) is calculated by iterative fitting of experimental data using the “easy sys” program, which is based on law of mass action (Schittkowski K. (1994), Numerische Mathematik, Vol. 68, 129-142).

CCR2 = target: T2, CCR2 (Homo sapiens, UniProt P41597); experiment: CCR2 receptor membrane binding assay (THP-1 membranes, 125I-MCP-1, SPA beads); details: THP-1 cell membranes, 125I-MCP-1, 8 h; read-out: hKi [nM] (CCR2)
T2 construct: Membranes were prepared from THP-1 cells; endogenous in cells; host or cells: THP-1 (human acute monocytic leukaemia cells), membrane preparation
T2 sequence (P41597 1-360 isoform P41597-2): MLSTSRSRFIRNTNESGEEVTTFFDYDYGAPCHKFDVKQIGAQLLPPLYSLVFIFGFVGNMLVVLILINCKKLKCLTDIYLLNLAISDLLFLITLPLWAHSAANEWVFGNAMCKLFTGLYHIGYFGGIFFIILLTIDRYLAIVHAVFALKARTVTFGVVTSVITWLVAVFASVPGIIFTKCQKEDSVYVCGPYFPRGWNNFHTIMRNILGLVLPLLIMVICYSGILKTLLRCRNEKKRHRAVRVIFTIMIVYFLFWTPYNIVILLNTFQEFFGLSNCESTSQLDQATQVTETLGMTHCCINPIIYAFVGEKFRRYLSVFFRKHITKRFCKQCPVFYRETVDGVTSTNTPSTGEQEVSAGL
Description: The above exemplary substances have been tested for binding to CCR2 using a binding assay as outlined herein below:
THP-1 cells (human acute monocytic leukaemia cells) were cultured under standardized conditions at 37° C. and 5% CO2 in a humidified incubator. THP-1 cells were cultivated in RPMI 1640 medium (Gibco 21875) containing 1% MEM-NEAA (Gibso 11140) 2 mM L-glutamine, 1.5 g/L sodium bicarbonate, 4.5 g/L glucose, 10 mM HEPES and 1.0 mM sodium pyruvate, 90%; 10% fetal calf serum (FCS Gibco 10500-064).
Membranes were prepared from THP-1 cells. THP-1 cells were centrifuged at 300×g at 4° C. for 10 min. The cell pellet was resuspendet in Phosphate Buffer Saline (PBS, including 10 μM Pefabloc and a protease inhibitor mix ‘complete’, Boehringer Mannheim (1 tablet/50 ml)), to a concentration of […]. The membrane preparation was performed by disrupting the cells by nitrogen […] (at 50 bar, for 1 h) in a “Nitrogen Bombe” (Parr Instrument). Cell debris was removed by centrifugation (800×g at 4° C., 1 min). The supernatant was centrifuged at 80000×g, 4° C. for 30 min to sediment the cell membranes. Usually 50 mg of protein (Bradford assay) were yielded from 1×10E9 cells. The membranes were resuspendet in 25 mM HEPES, 25 mM MgCl2, 1 mM CaCl2, 10% Glycerine for storage in aliquots at −80° C. in 25 mM HEPES, 25 mM MgCl2, 1 mM CaCl2, 10% Glycerine and stored at −80° C.
Perkin Elmer NEX 332 Jod^125 MCP-1, Stock: 2200 Ci/mmol solved in 2000 μl assay buffer, stored at −20° C. THP-1 membrane were adjusted with 25 mM HEPES, pH 7.2; 5 mM MgCl2; 0.5 mM CaCl2; 0.2% BSA assay buffer to a concentration of 2.5 μg/15 μl. Amersham Biosciences PVT-WGA Beads (RPNQ0001) were adjusted with assay buffer to a concentration of 0.24 mg/30 μl. For preparation of the membrane-bead-suspension membranes and beads were incubated for 30 min at RT under rotation (60 rpm) with a ratio of 1:2. Test compounds dissolved in 100% DMSO to a concentration of 10 mM and are further diluted with 100% DMSO to 1 mM. All additional compound dilutions were obtained with assay buffer, final 1% DMSO. Compounds, membrane-bead-suspension and [^125]MCP-1 (ca. 25000 cpm/10 μl) were incubated. Bound radioactivity was determined by scintillation counter after 8 h. Determination of affinity of test compounds (dissociation constant hKi) is calculated by iterative fitting of experimental data using the “easy sys” program, which is based on law of mass action (Schittkowski K. (1994), Numerische Mathematik, Vol. 68, 129-142).

T1 sequence (P51681 whole entry): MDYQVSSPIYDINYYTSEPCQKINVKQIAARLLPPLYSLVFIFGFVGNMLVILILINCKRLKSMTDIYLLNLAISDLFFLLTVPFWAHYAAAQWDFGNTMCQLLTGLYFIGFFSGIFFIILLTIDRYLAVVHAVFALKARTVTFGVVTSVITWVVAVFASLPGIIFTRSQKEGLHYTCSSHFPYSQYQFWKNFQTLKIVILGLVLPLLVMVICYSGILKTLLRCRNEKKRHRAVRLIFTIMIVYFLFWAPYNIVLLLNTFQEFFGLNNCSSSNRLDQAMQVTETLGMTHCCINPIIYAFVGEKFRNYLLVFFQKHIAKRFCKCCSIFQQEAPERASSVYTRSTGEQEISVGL

Compound	Ki (human CCR5) [nM]	Ki (CCR2) [nM]
Cc1c(NC[C@H]2CCC[C@@H](c3ccc(C(F)(F)F)cc3)O2)ncnc1C(=O)N1CCC(N2CC3CN(S(C)(=O)=O)CC3C2)CC1 (some centres unmarked) [Example 12]	220	1
Cc1c(C(=O)N2CCC(N3CC4CN(S(C)(=O)=O)CC4C3)CC2)ncnc1N1CCc2ccc(C(F)(F)F)cc2C1 (centres unmarked) [Example 13]	2270	7
Cc1ccc([C@@H]2CCC[C@H](CNc3ncnc(C(=O)N4CCC(N5CC6CN(S(C)(=O)=O)CC6C5)CC4)c3C)O2)cc1 (some centres unmarked) [Example 14]	330	3
Cc1c(Nc2ccc(Cl)c(Cl)c2)ncnc1C(=O)N1CCC(N2CC3CN(S(C)(=O)=O)CC3C2)CC1 (centres unmarked) [Example 15]	400	3
Cc1ccc([C@@H]2CCC[C@H](CNc3ncnc(C(=O)N4CCC(N5CC6COCC6C5)CC4)c3C)O2)cc1 (some centres unmarked) [Example 16]	880	40
Cc1c(NC[C@H]2CCC[C@@H](c3ccc(C(F)(F)F)cc3)O2)ncnc1C(=O)N1CCC(N2CC3COCC3C2)CC1 (some centres unmarked) [Example 17]	320	16
Cc1c(Nc2ccc(Cl)c(Cl)c2)ncnc1C(=O)N1CCC(N2CC3COCC3C2)CC1 (centres unmarked) [Example 18]	930	24
COc1nc(NCc2ccc(C(C)(C)C)cc2)c(C)c(C(=O)N2CCC(N3CC4COCC4C3)CC2)n1 (centres unmarked) [Example 19]	4030	58
Cc1c(NCc2ccc(C(C)(C)C)cc2)nc(C(F)(F)F)nc1C(=O)N1CCC(N2CC3COCC3C2)CC1 (centres unmarked) [Example 20]	2610	69
Cc1c(NC[C@H]2CCC[C@@H](c3ccc(C(F)(F)F)cc3)O2)ncnc1C(=O)N1CCC(N2CCOC3COCCC32)CC1 (some centres unmarked) [Example 21]	200	3
Cc1ccc([C@@H]2CCC[C@H](CNc3ncnc(C(=O)N4CCC(N5CCOC6COCCC65)CC4)c3C)O2)cc1 (some centres unmarked) [Example 22]	1170	15
Cc1c(C(=O)N2CCC(N3CCOC4COCCC43)CC2)ncnc1N1CCc2ccc(C(F)(F)F)cc2C1 (centres unmarked) [Example 23]	5820	17
Cc1c(Nc2ccc(Cl)c(Cl)c2)ncnc1C(=O)N1CCC(N2CCO[C@H]3COCC[C@H]32)CC1 [Example 24]	670	2
Cc1nc(Nc2ccc(Cl)c(Cl)c2)c(C)c(C(=O)N2CCC(N3CCO[C@H]4COCC[C@H]43)CC2)n1 [Example 25]	470	3
Cc1c(Nc2ccc(Cl)c(Cl)c2)nc(C2CC2)nc1C(=O)N1CCC(N2CCO[C@H]3COCC[C@H]32)CC1 [Example 26]	430	0.8
COc1nc(Nc2cccc(C(F)(F)F)c2)c(C)c(C(=O)N2CCC(N3CCO[C@H]4COCC[C@H]43)CC2)n1 [Example 27]	1000	3
COc1nc(Nc2ccc(Cl)c(Cl)c2)c(C)c(C(=O)N2CCC(N3CCO[C@H]4COCC[C@H]43)CC2)n1 [Example 28]	390	0.9
Cc1c(Nc2cccc(C(F)(F)F)c2)nc(C2CC2)nc1C(=O)N1CCC(N2CCO[C@H]3COCC[C@H]32)CC1 [Example 29]	960	1
Cc1nc(Nc2cccc(C(F)(F)F)c2)c(C)c(C(=O)N2CCC(N3CCO[C@H]4COCC[C@H]43)CC2)n1 [Example 30]	1000	9
Cc1ccc2c(c1)CN(c1nc(C)nc(C(=O)N3CCC(N4CCO[C@H]5COCC[C@H]54)CC3)c1C)CC2 [Example 31]	7010	67
Cc1c(C(=O)N2CCC(N3CC4COCC4C3)CC2)ncnc1N1CCc2ccc(C(F)(F)F)cc2C1 (centres unmarked) [Example 32]	5310	80
Cc1c(NCc2ccc(C(C)(C)C)cc2)ncnc1C(=O)N1CCC(N2CC3CN(S(C)(=O)=O)CC3C2)CC1 (centres unmarked) [Example 42]	1820	11
Cc1c(NC[C@H]2CCC[C@@H](c3ccccc3)C2)ncnc1C(=O)N1CCC(N2CC3CN(S(C)(=O)=O)CC3C2)CC1 (some centres unmarked) [Example 43]	43	1
Cc1c(NC[C@H]2CCC[C@@H](c3ccccc3)C2)ncnc1C(=O)N1CCC(N2CC3COCC3C2)CC1 (some centres unmarked) [Example 44]	65	7
Cc1c(NCc2ccc(C(C)(C)C)cc2)ncnc1C(=O)N1CCC(N2CC3COCC3C2)CC1 (centres unmarked) [Example 45]	4110	36

From US20130150354A1, “NEW SELECTIVE CCR2 ANTAGONISTS” (BOEHRINGER INGELHEIM INTERNATIONAL GMBH, priority 2011, published 2013)
